Laboratory results published in ChEMBL document CHEMBL1149936, “Discovery of selective dopamine D3 ligands: II. 2-[4-[3-(4-aryl-1-piperazinyl)propoxy]phenyl]benzimidazole partial agonists” (Bioorg Med Chem Lett, 1995).
pKi: −log10 of the molar value. Active and inactive are the calls of the source. The calls are words filed in the database; no cut-off is given here.

Experiments:
D(2) dopamine receptor = D(2) dopamine receptor (Homo sapiens, UniProt P14416); test: Binding affinity towards cloned human Dopamine D2 receptor in CHO cells using [3H]spiperone as radioligand; assay type: cell-based
Rattus norvegicus [1] = test: Inhibitory effect on exploratory locomotor activity in rats after ip administration; assay type: functional
Rattus norvegicus [2] = test: Inhibitory effect on exploratory locomotor activity in rats at a dose of 30 mg/kg after oral administration; no effect; assay type: functional, organism-based; parameters: dose 30 mg/kg
D(3) dopamine receptor = D(3) dopamine receptor (Homo sapiens, UniProt P35462); test: Binding affinity towards cloned human Dopamine D3 receptor in CHO cells using [3H]spiperone as radioligand; assay type: cell-based
Mus musculus = test: Inhibitory effect on exploratory locomotor activity in mice after ip administration; assay type: functional

Chain of D(2) dopamine receptor (P14416 whole entry): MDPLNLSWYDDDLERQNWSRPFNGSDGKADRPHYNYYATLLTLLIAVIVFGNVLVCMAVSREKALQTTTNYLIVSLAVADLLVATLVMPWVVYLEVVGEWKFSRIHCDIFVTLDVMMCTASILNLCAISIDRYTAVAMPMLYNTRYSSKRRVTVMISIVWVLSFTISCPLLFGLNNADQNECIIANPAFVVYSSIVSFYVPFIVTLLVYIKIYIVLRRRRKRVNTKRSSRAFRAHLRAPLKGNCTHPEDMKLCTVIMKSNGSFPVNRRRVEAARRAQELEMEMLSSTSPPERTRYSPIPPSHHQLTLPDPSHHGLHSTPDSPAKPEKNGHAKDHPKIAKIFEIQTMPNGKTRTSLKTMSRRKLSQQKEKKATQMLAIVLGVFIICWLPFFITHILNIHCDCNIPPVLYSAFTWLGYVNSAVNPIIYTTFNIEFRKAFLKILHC
Chain of D(3) dopamine receptor (P35462 whole entry): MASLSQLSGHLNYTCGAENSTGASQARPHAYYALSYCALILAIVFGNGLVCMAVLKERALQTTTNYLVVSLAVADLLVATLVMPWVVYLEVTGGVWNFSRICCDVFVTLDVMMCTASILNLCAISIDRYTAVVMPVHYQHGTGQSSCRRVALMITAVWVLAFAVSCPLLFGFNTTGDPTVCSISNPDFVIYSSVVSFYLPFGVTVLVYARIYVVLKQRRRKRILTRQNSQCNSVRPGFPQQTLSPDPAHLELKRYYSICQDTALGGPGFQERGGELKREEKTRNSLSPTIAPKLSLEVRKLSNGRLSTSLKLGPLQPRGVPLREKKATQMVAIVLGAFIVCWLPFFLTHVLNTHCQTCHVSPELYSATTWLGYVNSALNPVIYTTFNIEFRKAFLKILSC

Compound	pKi (D(2) dopamine receptor)	pKi (D(3) dopamine receptor)	ED50 (Rattus norvegicus [1]) [mg/kg]	ED50 (Rattus norvegicus [2])	ED50 (Mus musculus) [mg/kg]
c1ccc(N2CCN(CCCOc3ccc(-c4nc5ccccc5[nH]4)cc3)CC2)cc1	6.39	8.82	7.1	inactive	2.3
CN1CCN(CCCOc2ccc(-c3nc4ccccc4[nH]3)cc2)CC1	< 5.48	5.70	–	–	–
c1cnc(N2CCN(CCCOc3ccc(-c4nc5ccccc5[nH]4)cc3)CC2)nc1	6.57	–	–	–	–
COc1ccccc1N1CCN(CCCOc2ccc(-c3nc4ccccc4[nH]3)cc2)CC1	8.06	8.77	–	–	–
Clc1ccc(N2CCN(CCCOc3ccc(-c4nc5ccccc5[nH]4)cc3)CC2)cc1	6.06	7.57	–	–	–
Clc1cccc(N2CCN(CCCOc3ccc(-c4nc5ccccc5[nH]4)cc3)CC2)c1	5.85	6.81	–	–	–
COc1ccc(N2CCN(CCCOc3ccc(-c4nc5ccccc5[nH]4)cc3)CC2)cc1	6.53	6.89	–	–	–

Now from value to compound, other results behind:

pKi (D(2) dopamine receptor)	pKi (D(3) dopamine receptor)	Compound	ED50 (Rattus norvegicus [1]) [mg/kg]	ED50 (Rattus norvegicus [2])	ED50 (Mus musculus) [mg/kg]
8.10	–	CCCSc1ccccc1N1CCN(CCCOc2ccc(-c3nc4ccccc4[nH]3)cc2)CC1	–	–	–
7.15	–	c1ccc(N2CCN(CCCOc3ccc(-c4nc5ccccc5[nH]4)cc3)CC2)nc1	–	–	–
6.90	7.74	Clc1ccccc1N1CCN(CCCOc2ccc(-c3nc4ccccc4[nH]3)cc2)CC1	–	–	–
